This is an account of results in US7410971B2, “1,2-di(cyclic)substituted benzene compounds” (Eisai R&D Management Co., Ltd., priority 2003, dated 2008).

For one assay, the system named is DSS-induced colitis. Nature of the assay: DSS-induced colitis model. The assay is classed as in vivo, Balb/c mice. Conditions: 30 mg/kg orally once a day for 5-7 successive days; 1-3% DSS in water for 5-7 days. The text has this:
Evaluation of Compounds in DSS-Induced Colitis Model
A 1-3% solution of dextran sulfate sodium (hereinafter abbreviated as DSS; ICN) in purified water (Otsuka Pharmaceutical) was fed freely to 6- to 7-week-old male Balb/c mice (Charles River Japan) for 5-7 days to induce colitis. Disease Activity Index (hereinafter abbreviated as DAI) scored based on fecal hardness, blood content in feces and body weight change, the number of neutrophils infiltrating the colon and the length of the colon were used as indexes to evaluate compounds. Each compound was suspended or dissolved in an aqueous solution containing 0.5% methyl cellulose (Wako), and orally administered at 30 mg/kg once a day, for 5-7 successive days.

Assay [1] concerns colon-infiltrating neutrophils (myeloperoxidase enzyme activity). As to the kind of experiment: Oxazolone-induced colon neutrophil infiltration model. The assay is classed as in vivo, Balb/c mice. The conditions noted are these: Mus musculus, po, 30 mg/kg orally 30 minutes prior to intrarectal oxazolone, colon myeloperoxidase activity 4 hours after, vs oxazolone control group, read-out: Inhibitory rate (%). On the procedure:
Evaluation of Compounds in Oxazolone-Induced Colon Neutrophil Infiltration Model
<Sensitization with Oxazolone>
Five- to six-week-old male Balb/c mice (Charles River Japan) were shaven at the abdomen to an approximately 2 cm square area. A 100% ethanol solution containing 3% 4-ethoxymethylene-2-phenyl-2-oxazolin-5-one (hereinafter referred to as “oxazolone”; Sigma) was applied at 150 μl onto the abdomen of each mouse.
<Preparation of Emulsion Containing Oxazolone>
Distilled water (Otsuka Pharmaceutical) was added in an equivalent volume to 100% peanut oil (Kanto Kagaku) containing 1% oxazolone, and the components were vigorously mixed with a glass syringe (Top Co.), to prepare an emulsion containing 0.5% oxazolone.
<Induction with Oxazolone>
The mice were fasted on the 3rd day after oxazolone sensitization, and were injected with 100 μl of the emulsion containing 0.5% oxazolone prepared in the way described above intrarectally at a site approximately 3 cm from the anus under ether anesthesia on the 4th day.
<Colon-Infiltrating Neutrophil Assay>
Each compound was suspended or dissolved in an aqueous solution containing 0.5% methyl cellulose (Wako), and orally administered at 30 mg/kg 30 minutes prior to the intrarectal injection of oxazolone emulsion. Four hours after the intrarectal injection of oxazolone, mice were sacrificed by cervical dislocation, and colons were extirpated, dissected in the longitudinal direction, washed with physiological saline, and transferred to ice-cooled plastic centrifugation tubes. After adding 1 ml of 50 mM potassium phosphate buffer (hereinafter abbreviated as KPB) (pH 6.0) to the tube, and the tissue were homogenized with PHYSCOTRON (Microtec Nition Co., Ltd.), 2 ml of 50 mM KPB (pH 6.0) was added and the mixture was centrifuged at 3000 rpm, 4° C. for 10 minutes and the supernatant was removed. To the resultant precipitate was added 1 ml of 50 mM KPB (pH 6.0) containing 0.5% hexadecyltrimethyl-ammonium bromide (Sigma), and freeze-thawed 3 to 5 times using liquid nitrogen and hot water, centrifuged at 3000 rpm, 4° C. for 10 minutes to yield a supernatant. The myeloperoxidase enzyme activity in the supernatant was assayed in the following manner. Specifically, to 10 μl of the obtained supernatant was added 200 μl of 50 mM KPB (pH6.0) containing 0.017% o-dianisidine (Sigma) and 0.0005% hydrogen peroxide (Wako), incubated at 37° C., and the change in absorbance at 450 nm was continuously measured for 1 minute using an EL340 Automated Microplate Reader (BIO-TEK) in kinetic mode. The units were the rate of change in absorbance per minute (mO.D./min.). With regard to the effect of each compound, the inhibitory rate (%) with respect to the oxazolone control group, i.e. the oxazolone-injected/compound-free group, was shown in the table 3.

Another assay has as its system Jurkat cells. Nature of the assay: Jurkat cell adhesion system (adhesion to immobilized human fibronectin, PMA-stimulated). In kind it is cell-based. The conditions noted are these: concentration inhibiting by 50% the PMA-stimulated increase in number of adhered Jurkat cells on human fibronectin. On the procedure: Evaluation of Compounds in Jurkat Cell Adhesion System
<Immobilization of Human Fibronectin in 96-Well Plate>
Human fibronectin (Becton Dickinson Biosciences) was diluted with phosphate-buffered saline (hereinafter abbreviated as PBS; Sigma) to 0.1-0.01 μg/ml, and the diluted solution was added to a 96-well plate (Becton Dickinson) at 50μ/well, and allowed to stand overnight at 4° C. On the following day, the supernatant was removed from the plate, and then PBS containing 1% bovine serum albumin (hereinafter abbreviated as BSA; Sigma) was added thereto at 100 μl/well and incubation was performed at 37° C. for 2 hours in a CO2 incubator (Hirasawa).
The supernatant was removed from each plate and Jurkat cells suspended in RPMI-1640 (Sigma) containing 1 mg/ml BSA were added at 80 μl/well for 2.5×10^5 cells/well. The compound diluted to different concentrations with RPMI-1640 containing 1 mg/ml BSA was immediately added at 10 μl/well, and then 100 nM phorbol myristate acetate (hereinafter abbreviated as PMA; Sigma) in RPMI-1640 containing 1 mg/ml BSA was added at 10 μl/well and the plate was incubated in a CO2 incubator at 37° C. for 45-60 minutes. The supernatant was removed from the plate and each well was washed several times with 100 μl/well of RPMI-1640, after which 50 mM citrate buffer (pH 5.0) containing 3.75 mM p-nitrophenol-N-acetyl-β-D-glucosaminide (Sigma) and 0.25% Triton X-100 (Sigma) were added at 60 μl/well, and the mixture was placed in a CO2 incubator and incubated at 37° C. for 45 minutes. After incubation, 50 mM glycine buffer (pH 10.4) containing 5 mM EDTA was added at 90 μl/well, and the absorbance at 405 nm was measured with an EL340 Automated Microplate Reader (BIO-TEK) to determine the adhered cell count. The concentration of each compound which inhibited the increase in the number of adhered cells by the PMA-stimulation by 50% was recorded as the IC50 (μM).

For `CCCCN1CCN(c2ccc(N3CCOCC3)cc2C2=CCC(C(C)(C)C)CC2)CC1.Cl` (racemic) [Example 18, 4-[3-(4-t-Butylcyclohex-1-enyl)-4-(4-butylpiperazine-1-yl)phenyl]morpholine hydrochloride], the “improvement in comparison with the DSS control group (DAI, number of neutrophils infiltrating the colon, length of the colon)” value (shortened to “improvement in comparison”) in the assay with DSS-induced colitis is recorded as “particularly good improvement”. For the same compound, the inhibition in vivo at 30 mg/kg in assay [1] is 50%.

In the case of `COC1CCN(c2ccc(N3CCN(CC4CC4)CC3)c(C3=CCC(C(C)(C)C)CC3)c2)CC1.Cl` (racemic) [Example 20, 1-[2-(4-t-Butylcyclohex-1-enyl)-4-(4-methoxypiperidin-1-yl)phenyl]-4-cyclopropylmethylpiperazine hydrochloride], the “improvement in comparison” value with DSS-induced colitis is on record as “particularly good improvement”. In addition, the inhibition in vivo at 30 mg/kg in assay [1] was 38%.

For `CCCCCN1CCN(c2cc(OC)ccc2C2CCC(C)(C)CC2)CC1.Cl` [Example 1, 1-[2-(4,4-Dimethylcyclohexyl)-5-methoxyphenyl]-4-pentylpiperazine hydrochloride], the “improvement in comparison” value in the assay with DSS-induced colitis is “particularly good improvement”. In addition, the inhibition in vivo at 30 mg/kg in assay [1] stood at 45%. `CC1(C)CC(c2ccccc2N2CCN(CC3CC3)CC2)CC(C)(C)C1.Cl` [Example 9, 1-Cyclopropylmethyl-4-[2-(3,3,5,5-tetramethylcyclohexyl)phenyl]piperazine hydrochloride]: in assay [1], the inhibition in vivo at 30 mg/kg stood at 35%. In general, IC50 refers to the concentration that inhibits the measured activity by half. The compound `CCNC(=O)CN1CCN(c2ccccc2C2CCC(C(C)(C)C)CC2)CC1.Cl` (stereo not drawn) [Example 10, 2-{4-[2-(4-t-Butylcyclohexyl)phenyl]piperazin-1-yl}-N-ethylacetamide hydrochloride] displayed an IC50 in the assay with Jurkat cells of 4.7 µM. Turning to `CCCCN1CCN(c2ccccc2C2CCC(C(C)(C)C)CC2)CC1.Cl` (stereo not drawn) [Example 15, 1-Butyl-4-[2-(4-t-butylcyclohexyl)phenyl]piperazine hydrochloride], the “improvement in comparison” value in the assay on DSS-induced colitis is given as “particularly good improvement”. Also, the IC50 with Jurkat cells was 2.3 µM.

As to `CCC(=O)CN1CCN(c2ccccc2C2CCC(C)(C)CC2)CC1.Cl` [Example 17, 1-{4-[2-(4,4-Dimethylcyclohexyl)phenyl]piperazin-1-yl}butan-2-one hydrochloride], the “improvement in comparison” value with DSS-induced colitis was “particularly good improvement”. In assay [1], the inhibition in vivo at 30 mg/kg is 30%. For `COCCN1CCN(c2ccccc2C2CCC(C(C)(C)C)CC2)CC1.Cl` (stereo not drawn) [Example 19, 1-[2-(4-t-Butylcyclohexyl)phenyl]-4-(2-methoxyethyl)piperazine hydrochloride], the “improvement in comparison” value in the assay on DSS-induced colitis is listed as “particularly good improvement”.

With `CC1(C)C=C(c2ccccc2N2CCN(CC3CCOCC3)CC2)CC(C)(C)C1.Cl` [Example 22, 1-(Tetrahydropyran-4-ylmethyl)-4-[2-(3,3,5,5-tetramethylcyclohex-1-enyl)phenyl]piperazine hydrochloride], the “improvement in comparison” value in the assay with DSS-induced colitis is “particularly good improvement”. Moreover, the inhibition in vivo at 30 mg/kg in assay [1] came to 28%. Taken in the same sequence, the figures for `CCCN1CCN(c2ccc(N3CCOCC3)cc2C2=CC(C)(C)CC(C)(C)C2)CC1.Cl` [Example 28, 4-[4-(4-Propylpiperazin-1-yl)-3-(3,3,5,5-tetramethylcyclohex-1-enyl)phenyl]morpholine hydrochloride] were “particularly good improvement” and 48%. For `CCC(=O)CN1CCN(c2ccc(N3CCOCC3)cc2C2=CCC(CC)(CC)CC2)CC1.Cl` [Example 30, 1-{4-[2-(4,4-Diethylcyclohex-1-enyl)-4-morpholin-4-ylphenyl]piperazin-1-yl}butan-2-one hydrochloride], in that order: “particularly good improvement” and 23%. On to `CCCN1CCN(c2ccccc2C2CC(C)(C)CC(C)(C)C2)CC1.Cl` [Example 31, 1-Propyl-4-[2-(3,3,5,5-tetramethylcyclohexyl)phenyl]piperazine hydrochloride], for which, in the assay on DSS-induced colitis, the “improvement in comparison” value is recorded as “particularly good improvement”. Further, the inhibition in vivo at 30 mg/kg in assay [1] is 38%. On to `CCCCN1CCN(c2ccc(N3CCC(OC)CC3)cc2C2CC(C)(C)CC(C)(C)C2)CC1.Cl` [Example 32, 1-Butyl-4-[4-(4-methoxypiperidin-1-yl)-2-(3,3,5,5-tetramethylcyclohexyl)phenyl]piperazine hydrochloride], for which the “improvement in comparison” value with DSS-induced colitis is on record as “particularly good improvement”. Also, in assay [1], the inhibition in vivo at 30 mg/kg came to 51%. Regarding `CC(C)CN1CCN(c2ccccc2C2=CCC3(CC2)CC3)CC1.Cl` [Example 34, 1-Isobutyl-4-(2-spiro[2.5]oct-5-en-6-ylphenyl)piperazine hydrochloride], the “improvement in comparison” value in the assay with DSS-induced colitis is “particularly good improvement”.
